Measurements as given in patent US7612205B2, “Crystals of quinolinecarboxylic acid derivative solvate” (Nippon Shinyaku Co., Ltd., priority 2003, dated 2009).
Read-outs that look alike come from different tables or passages of the source. One block for each molecule: values may come before it.

Tests used:
[1] = Investigation on solvent for crystallization: whether Compound A is dissolved in a solvent; type: physicochemical; conditions: organic solvent or mixture, thermodynamic from solid, 3 ml solvent to 50 mg
Experimental: (1) By adding 3 ml of a solvent to 50 mg of Compound A, it was investigated whether Compound A is dissolved or not.
(§1) The results of the (1) described above are shown in the column of *1 of Table 2 and the results of the (2) described above are shown in the column of *2 of Table 2.

[2] = Stability of Compound A in a solvent by high-performance liquid chromatography; type: physicochemical; set-up: key to Chemical stability (*2): ◯: the one that did not have a peak other than that of Compound A (there is no degradation product); X: the one that had a peak other than that of Compound A (there is a degradation product); conditions: 50° C. for 1000 minutes, HPLC; for Chemical stability (*2): 2-fold volume
Experimental: (2) In order to investigate the stability of Compound A in a solvent, a 2-fold volume (the volume of a solvent (ml)/the weight of a dissolved substance (g)) of a solvent was added to Compound A, the mixture was maintained at 50° C. for 1000 minutes, and then the stability of the compound was investigated by high-performance liquid chromatography.
as §1

[3] = acetonitrile, in terms of the desolvate
Text: In the present invention, the term “supersaturation concentration: Cx (g/100 g)” means the degree of supersaturation state and it is represented by the following formula. Cx=C−Cs
Where, C (g/100 g) indicates the mass (in terms of the desolvate) of Compound B dissolved in 100 g of a solvent.
Cs (g/100 g) indicates the saturation solubility (in terms of the desolvate) of Compound B dissolved in 100 g of a solvent under the temperature at the time of occurrence of spontaneous nucleation or addition of seed crystal.
A predetermined amount of Compound A was dissolved in a predetermined amount of acetonitrile, crystallization was carried out at various supersaturation concentrations, and the obtained crystals were analyzed with a powder X-ray diffractometer.

[4] = in acetonitrile, stirred for 30 minutes
Experimental: In the present invention, the term “solvent mediated transformation” means transformation of a crystal into another crystal form in the presence of a solvent. For example, it means that at a predetermined temperature, the crystal of Compound B is transformed into the type I crystal of Compound A in a solvent.
The crystal of Compound B was added to acetonitrile in an amount of not less than the supersaturation concentration at a predetermined temperature (in a state where not all the added crystals are dissolved and some crystals are present), stirred for 30 minutes, and then the crystal was filtered and measured with a powder X-ray diffractometer.

solubility ([1]; solvent 1-butanol): ≤ 16.7 mg/mL
solubility ([1]; solvent 2-ethoxy ethanol, read-out: Solubility (*1)): ≥ 16.7 mg/mL
solubility ([1]; solvent 2-propanol, read-out: Solubility (*1)): ≤ 16.7 mg/mL
solubility ([1]; solvent N,N-dimethylformamide, read-out: Solubility (*1)): > 16.7 mg/mL
solubility ([1]; solvent acetic acid, read-out: Solubility (*1)): > 16.7 mg/mL
solubility ([1]; solvent acetic anhydride, read-out: Solubility (*1)): ≥ 16.7 mg/mL
solubility ([1]; solvent acetone, read-out: Solubility (*1)): ≤ 16.7 mg/mL
solubility ([1]; solvent acetonitrile, read-out: Solubility (*1)): ≥ 16.7 mg/mL
solubility ([1]; solvent aniline, read-out: Solubility (*1)): > 16.7 mg/mL
solubility ([1]; solvent benzene, read-out: Solubility (*1)): ≤ 16.7 mg/mL
solubility ([1]; solvent carbon tetrachloride, read-out: Solubility (*1)): ≤ 16.7 mg/mL
solubility ([1]; solvent chloroacetonitrile, read-out: Solubility (*1)): > 16.7 mg/mL
solubility ([1]; solvent chloroform, read-out: Solubility (*1)): ≤ 16.7 mg/mL
solubility ([1]; solvent cresol, read-out: Solubility (*1)): ≤ 16.7 mg/mL
solubility ([1]; solvent dibutyl ether, read-out: Solubility (*1)): ≤ 16.7 mg/mL
solubility ([1]; solvent diisopropyl ether, read-out: Solubility (*1)): ≤ 16.7 mg/mL
solubility ([1]; solvent dioxane, read-out: Solubility (*1)): ≤ 16.7 mg/mL
solubility ([1]; solvent diphenyl ether, read-out: Solubility (*1)): ≤ 16.7 mg/mL
solubility ([1]; solvent ethanol, read-out: Solubility (*1)): ≤ 16.7 mg/mL
solubility ([1]; solvent ethyl acetate, read-out: Solubility (*1)): ≤ 16.7 mg/mL
solubility ([1]; solvent formamide, read-out: Solubility (*1)): ≤ 16.7 mg/mL
solubility ([1]; solvent formic acid, read-out: Solubility (*1)): > 16.7 mg/mL
solubility ([1]; solvent glycerin, read-out: Solubility (*1)): ≤ 16.7 mg/mL
solubility ([1]; solvent heptane, read-out: Solubility (*1)): ≤ 16.7 mg/mL
solubility ([1]; solvent hexane, read-out: Solubility (*1)): ≤ 16.7 mg/mL
solubility ([1]; solvent isobutyl alcohol, read-out: Solubility (*1)): ≤ 16.7 mg/mL
solubility ([1]; solvent isopropyl acetate, read-out: Solubility (*1)): ≤ 16.7 mg/mL
solubility ([1]; solvent ligroin, read-out: Solubility (*1)): ≤ 16.7 mg/mL
solubility ([1]; solvent methanol, read-out: Solubility (*1)): ≤ 16.7 mg/mL
solubility ([1]; solvent methyl acetate, read-out: Solubility (*1)): ≤ 16.7 mg/mL
solubility ([1]; solvent methyl ethyl ketone, read-out: Solubility (*1)): ≤ 16.7 mg/mL
solubility ([1]; solvent methylcyclohexane, read-out: Solubility (*1)): ≤ 16.7 mg/mL
solubility ([1]; solvent nitromethane, read-out: Solubility (*1)): > 16.7 mg/mL
solubility ([1]; solvent p-cymene, read-out: Solubility (*1)): ≤ 16.7 mg/mL
solubility ([1]; solvent petroleum ether, read-out: Solubility (*1)): ≤ 16.7 mg/mL
solubility ([1]; solvent phenol, read-out: Solubility (*1)): ≥ 16.7 mg/mL
solubility ([1]; solvent pyridine, read-out: Solubility (*1)): > 16.7 mg/mL
solubility ([1]; solvent tetrachloroethylene, read-out: Solubility (*1)): ≤ 16.7 mg/mL
solubility ([1]; solvent tetrahydrofuran, read-out: Solubility (*1)): ≤ 16.7 mg/mL
solubility ([1]; solvent toluene, read-out: Solubility (*1)): ≤ 16.7 mg/mL
solubility ([1]; solvent trichloroethylene, read-out: Solubility (*1)): ≤ 16.7 mg/mL
solubility ([1]; solvent xylene, read-out: Solubility (*1)): ≤ 16.7 mg/mL
Chemical stability (*2) ([2]; solvent 2-ethoxy ethanol): X
Chemical stability (*2) ([2]; solvent acetic acid): X
Chemical stability (*2) ([2]; solvent acetic anhydride): X
Chemical stability (*2) ([2]; solvent acetonitrile): ◯
Chemical stability (*2) ([2]; solvent aniline): X
Chemical stability (*2) ([2]; solvent formic acid): X
Chemical stability (*2) ([2]; solvent methanol): X
Chemical stability (*2) ([2]; solvent phenol): X
Structure (SMILES): Cc1oc(=O)oc1CN1CCN(c2cc3c(cc2F)c(=O)c(C(=O)O)c2n3C(C)S2)CC1 (stereo not drawn) [Compound A, 6-fluoro-1-methyl-7-[4-(5-methyl-2-oxo-1,3-dioxolen-4-yl)-methyl-1-piperazinyl]-4-oxo-4H-[1,3]thiazeto[3,2-a]quinoline-3-carboxylic acid]
degradation product in solvent ([2]; formic acid, acetic acid and aniline): a degradation product of Compound A was observed

Solubility at the time of occurrence of spontaneous nucleation or addition of seed crystals (Cs) ([3]; 0 ° C.): 0.07 g/100 g
Solubility at the time of occurrence of spontaneous nucleation or addition of seed crystals (Cs) ([3]; 14.3 ° C.): 0.16 g/100 g
Solubility at the time of occurrence of spontaneous nucleation or addition of seed crystals (Cs) ([3]; 17 ° C.): 0.19 g/100 g
Solubility at the time of occurrence of spontaneous nucleation or addition of seed crystals (Cs) ([3]; 25 ° C.): 0.29 g/100 g
Solubility at the time of occurrence of spontaneous nucleation or addition of seed crystals (Cs) ([3]; 27 ° C.): 0.32 g/100 g
Solubility at the time of occurrence of spontaneous nucleation or addition of seed crystals (Cs) ([3]; 30 ° C.): 0.38 g/100 g
Solubility at the time of occurrence of spontaneous nucleation or addition of seed crystals (Cs) ([3]; 45 ° C.): 0.79 g/100 g
Solubility at the time of occurrence of spontaneous nucleation or addition of seed crystals (Cs) ([3]; 50 ° C.): 1.00 g/100 g
Solubility at the time of occurrence of spontaneous nucleation or addition of seed crystals (Cs) ([3]; 55 ° C.): 1.25 g/100 g
Solubility at the time of occurrence of spontaneous nucleation or addition of seed crystals (Cs) ([3]; 65 ° C.): 1.92 g/100 g
Solubility at the time of occurrence of spontaneous nucleation or addition of seed crystals (Cs) ([3]; 70 ° C.): 2.36 g/100 g
Crystal form ([4]; 25 ° C.): Not changed
Crystal form ([4]; 40 ° C.): Not changed
Crystal form ([4]; 55 ° C.): Not changed
Crystal form ([4]; 67 ° C.): Not changed
Structure (SMILES): CC#N.Cc1oc(=O)oc1CN1CCN(c2cc3c(cc2F)c(=O)c(C(=O)O)c2n3C(C)S2)CC1 (stereo not drawn) [Compound B, 6-fluoro-1-methyl-7-[4-(5-methyl-2-oxo-1,3-dioxolen-4-yl)-methyl-1-piperazinyl]-4-oxo-4H-[1,3]thiazeto[3,2-a]quinoline-3-carboxylic acid acetonitrile solvate]
